The values below come from patent publication US20150176022A1, “HERBICIDE-RESISTANT SUNFLOWER PLANTS, POLYNUCLEOTIDES ENCODING HERBICIDE=RESISTANT ACETO HYDROXY ACID SYNTHASE LARGE SUBUNIT PROTEINS, AND METHODS OF USE” (priority 2013, published 2015).

The experiment has as its system sunflower IB920 (Manteiner Line, A205V). The experiment can be described thus: Greenhouse whole-plant imazapir dose response (Example 8). Conditions: 14 DAT. The experiment is classed as in vivo, Helianthus annuus.

For the compound `CC(C)C1(C)N=C(c2ncccc2C(=O)O)NC1=O` (stereo not shown) [imazapir, imazapyr], the “biomass accumulation (dry biomass, % of untreated)” value by setting is: (0.5× (40 g ai/ha)) 93.9%; (1× (80 g ai/ha)) 87.9%; (2× (160 g ai/ha)) 58.8%; (3× (240 g ai/ha)) 46.4%; (4× (320 g ai/ha)) 35.5%; (6× (480 g ai/ha)) 29.4%. The “plant height (% of untreated)” value is recorded as 96.2% (0.5× (40 g ai/ha)); 80.0% (1× (80 g ai/ha)); 61.5% (2× (160 g ai/ha)); 40.9% (3× (240 g ai/ha)); 27.9% (4× (320 g ai/ha)); 30.0% (5× (400 g ai/ha)). For the same compound, the “root dry weight (% of untreated)” value is 94.0% (0.5× (40 g ai/ha)); 89.6% (1× (80 g ai/ha)); 50.7% (2× (160 g ai/ha)); 37.3% (3× (240 g ai/ha)); 32.8% (4× (320 g ai/ha)); 25.4% (5× (400 g ai/ha)). Further, the “root dry weight (% of untreated)” value (6× (480 g ai/ha)) is listed as 19.4%.
